Laboratory results: patent US11529359B2, “Use of GABAA receptor modulators for treatment of itch” (UNIVERSITÄT ZÜRICH, priority 2016, dated 2022)

Tests used:
α1 GABAARs = molecular target: T1, α1 GABAARs (Homo sapiens, UniProt P14867+P18507); assay: GABA-evoked currents, recombinant GABAARs in HEK293 cells (α1); assay type: cell-based; conditions: HEK293 cells transiently transfected
T1 construct: expressed in transfected cells; host or cells: HEK293 cells (ATCC), transient transfection
Description: (§1) HEK293 cells were transfected using lipofectamine LTX (Dugue, G. P., et al. Neuron, 2009, 61, 126-139). To ensure expression of the γ2 subunit (required for modulation of GABAARs by BDZs) in all recorded cells, the inventors transfected cells with a plasmid expressing the γ2 subunit plus eGFP from an IRES, and only selected eGFP-positive cells for recordings. The transfection mixture contained (in μg): 1 α1, 1 β2, 3 γ2/eGFP (used as a marker of successful transfection) or 1 αx, 1 β3, 3 γ2/eGFP in case of α2, α3, or α5GABAARs. Recordings were made 18-36 hrs after transfection. Whole-cell patch-clamp recordings of GABA-evoked currents were made at room temperature (20-24° C.) and at a holding potential of −60 mV. Recording electrodes were filled with solution containing (in mM): 120 CsCl, 10 EGTA, 10 HEPES (pH 7.40), 4 MgCl2, 0.5 GTP and 2 ATP. The external solution contained (in mM): 150 NaCl, 10 KCl, 2.0 CaCl2, 1.0 MgCl2, 10 HEPES (pH 7.4), and 10 glucose. GABA was applied to the recorded cell using a manually controlled pulse (4-6 s) of a low sub-saturating GABA concentration (ECS). ECs values of GABA were determined for all subunit combinations analyzed. […] Imax was determined as the average maximal current elicited by a concentration of 1 mM GABA. […]

GABAARs = assay: recombinant GABAARs in HEK293 cells, direct activation in the absence of GABA; assay type: cell-based
Description: as §1

[1] = system: GABA-IPSCs in GRP neurons; assay: GABAergic IPSCs in GRP neurons, whole-cell recordings in spinal cord slices; assay type: cell-based, GRP::eGFP mice; conditions: 1 μM; n=7
Description: Transverse spinal cord slices ([…]) were prepared from 20 to 29-day old GRP::eGFP mice of either sex as described previously (Dugue, G. P., et al. Neuron, 2009, 61, 126-139). Whole-cell patch clamp recordings were made at room temperature targeting eGFP positive neurons. During recordings, slices were continuously superfused at the rate of 1-2 ml/min with aSCF containing (in mM): 120 NaCl, 2.5 KCl, 1.25 NaH2PO4, 26 […], 5 HEPES, 1 MgCl2, 2 CaCl2) and 14.6 glucose (pH 7.4), equilibrated with 95% O2, 5% CO2. Recorded neurons were voltage clamped at −70 mV using an EPC 9 amplifier (HEKA Elektronic, Lambrecht, Germany) controlled with Patchmaster acquisition software. […] IPSCs were evoked by electrical stimulation (300 μs, 0.2-50 V) at 0.05 Hz using glass electrode filled with aCSF and placed 50-100 μm from the soma of the recorded cell. […] At the end of the recordings bicuculline (10 μM) was added to confirm the GABAergic nature of the recorded IPCSs. The weighted decay time constant (τw) was calculated from dual-exponential fits using the following equation: Tw=(τ1A1+τ2A2)/(A1+A2) where τ1 and τ2 are the fast and the slow decay time constants and A1 and A2 are the equivalent amplitude weighting factors (Labrakakis, C., Lorenzo, L. E., Bories, C., Ribeiro-da-Silva, A. & De Koninck, Y Mol Pain, 2009, 5, 24). […]

[2] = system: contact dermatitis-induced chronic itch; assay: oxazolone contact dermatitis model of chronic itch in wild-type mice; assay type: in vivo, wild-type C57BL6/J mice
Description: Thus, TPA023B is, in accordance with the other findings of the inventors, suitable as an antipruritic substance.
This was independent of the treatment they received from day 7 to day 27.
The inventors sought to confirm the antipruritic efficacy of α2 and α3 GABAA receptor agonists against contact dermatitis-induced chronic itch. To this end, N-desmethyl clobazam, a benzodiazepine with improved activity at α2 versus α1 was assessed for its antipruritic effects (Jensen et al. PLoS One. 2014 Feb. 12; 9(2):e88456.).
Chronic itch was investigated in the contact dermatitis model (Kido-Nakahara, M., et al. J Clin Invest, 2014, 124, 2683-2695). Mice were treated once with 10% oxazolone in acetone/olive oil (4:1 v/v) on the shaved nape of the neck (100 μl) on day 0. After a resting period of 7 days, mice were treated with 1% oxazolone in acetone/olive oil (4:1 v/v) on the nape of the neck (100 μl) every other day for 10 days. On the day of the experiment, mice were injected with drug or vehicle i.p. under short and light isoflurane anesthesia. […]

α2GABAARs = assay: chloroquine-induced biting (thigh injection) in hoxB8-α2−/−, α2fl/fl and α2 (H→R) mice; assay type: in vivo; conditions: 1 mg/kg p.o., 100 μg chloroquine thigh
Description: Acute itch was assessed in mice that received intradermal microinjections of pruritogens or 0.9% saline into the right cheek, which had been shaved at least one day before the experiment. In two sets of experiments that addressed the contribution of GABAARs in primary and secondary pruritoceptors, pruritogens were injected in the right thigh (FIG. 17). Before injection, mice were acclimatized to a 15 cm diameter cylindrical enclosure for more than 30 min with cage bedding on the ground. Background white noise generated by a radio in the room at ambient volume was applied to prevent auditory distraction. A 30 gauge needle was inserted bevel-up and pushed 5 mm horizontally into the skin beyond the point of insertion, before injection of the pruritogen (in a total volume of 10 μl). No anesthesia was used. Correct injection was confirmed by the appearance of a slightly domed bulla upon injection. […] Videos were analyzed off-line. Scratching of the hind paw directed to the ipsilateral cheek was counted in bouts, with one scratching bout defined as an instance when the mouse lifted its paw to scratch until it returned the paw to the cage floor. In case of experiments in which the pruritogen was injected in the skin of the thigh, the time spent biting the injected skin area was counted in s/min as a measure of itch.

T1 sequence (P14867 28-456): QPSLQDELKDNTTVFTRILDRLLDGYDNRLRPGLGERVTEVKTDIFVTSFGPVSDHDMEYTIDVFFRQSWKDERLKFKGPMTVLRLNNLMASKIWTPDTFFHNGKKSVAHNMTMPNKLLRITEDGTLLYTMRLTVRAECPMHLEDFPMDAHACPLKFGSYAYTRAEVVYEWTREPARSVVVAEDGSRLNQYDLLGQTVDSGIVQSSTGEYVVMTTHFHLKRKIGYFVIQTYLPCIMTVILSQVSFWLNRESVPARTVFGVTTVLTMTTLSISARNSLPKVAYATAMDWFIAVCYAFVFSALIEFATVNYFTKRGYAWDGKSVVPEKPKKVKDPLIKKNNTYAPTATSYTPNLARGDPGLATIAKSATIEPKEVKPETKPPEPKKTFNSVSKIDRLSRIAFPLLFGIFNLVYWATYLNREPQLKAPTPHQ
T1 sequence (P47870 25-512 partner limits assumed): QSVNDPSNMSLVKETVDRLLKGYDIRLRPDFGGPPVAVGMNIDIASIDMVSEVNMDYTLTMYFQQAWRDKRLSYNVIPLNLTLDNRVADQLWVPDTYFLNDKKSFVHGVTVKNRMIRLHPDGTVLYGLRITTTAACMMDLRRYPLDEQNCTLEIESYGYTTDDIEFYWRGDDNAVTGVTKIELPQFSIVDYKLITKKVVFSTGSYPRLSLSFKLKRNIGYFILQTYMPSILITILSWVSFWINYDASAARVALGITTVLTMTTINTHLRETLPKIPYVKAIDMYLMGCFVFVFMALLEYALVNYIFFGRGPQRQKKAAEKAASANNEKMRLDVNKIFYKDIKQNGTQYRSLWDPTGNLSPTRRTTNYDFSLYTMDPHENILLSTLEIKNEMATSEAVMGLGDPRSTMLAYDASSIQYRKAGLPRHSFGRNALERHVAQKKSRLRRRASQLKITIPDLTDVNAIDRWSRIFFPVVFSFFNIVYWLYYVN
T1 sequence (P18507 40-467 limits assumed): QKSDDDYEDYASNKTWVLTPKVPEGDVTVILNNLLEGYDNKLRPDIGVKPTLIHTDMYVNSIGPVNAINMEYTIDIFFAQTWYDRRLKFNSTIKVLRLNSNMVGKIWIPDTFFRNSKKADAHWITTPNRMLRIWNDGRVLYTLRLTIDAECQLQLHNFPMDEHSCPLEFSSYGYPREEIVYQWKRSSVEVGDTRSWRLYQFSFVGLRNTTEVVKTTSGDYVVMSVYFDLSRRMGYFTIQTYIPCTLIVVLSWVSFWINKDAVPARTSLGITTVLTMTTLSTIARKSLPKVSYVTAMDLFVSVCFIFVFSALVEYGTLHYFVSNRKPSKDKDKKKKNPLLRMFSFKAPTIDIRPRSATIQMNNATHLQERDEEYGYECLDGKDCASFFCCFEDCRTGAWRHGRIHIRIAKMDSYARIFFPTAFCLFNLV

In the case of `CC(C)(O)c1cnn2c(-c3ccc(F)c(-c4c(F)cccc4C#N)c3)cnc2n1` [TPA023B, 6,2′-difluoro-5′-[3-(1-hydroxy-1-methylethyl)imidazo[1,2-b][1,2,4]triazin-7-yl]biphenyl-2-carbonitrile], the “potentiation of GABA-induced currents” value (α1 GABAARs) is reported as “did not potentiate GABA-induced currents”, the “activation of GABAARs in the absence of GABA” value (GABAARs) is reported as “did not activate” and the “amplitude of GABA-IPSCs” value [1] is reported as “did not affect the amplitude”. The “prolongation of the decay of GABA-IPSCs” value [1] was 43±10%, the “tolerance development to the antipruritic effects” value ([2]; 1 mg/kg i.p. for nine consecutive days, d/d vs v/d) was “exclude tolerance development” and the “scratching bouts directed at the nape of the neck vs vehicle” value ([2]; 1 mg/kg i.p. on day 18, 15 to 210 min after injection) was “significant reduction in scratching bouts”. For the same compound, the “scratching bouts on day 28 vs vehicle, independent of pretreatment” value ([2]; 1 mg/kg i.p. on day 28 after vehicle or 1 mg/kg once daily for nine consecutive days) was “significant reduction in scratching bouts”, the “biting responses, hoxB8-α2−/− mice vs global α2R/R mice” value (α2GABAARs) was “No significant difference” and the “biting responses in treated mice compared between genotypes” value (α2GABAARs; hoxB8-α2−/−, α2fl/fl and α2 (H→R) mice) was “differed significantly between genotypes”.
